The record followed here is ChEMBL document CHEMBL3091456, “Chemical Probe Identification Platform for Orphan GPCRs Using Focused Compound Screening: GPR39 as a Case Example” (ACS Med Chem Lett, 2013).

The term EC50 denotes the midpoint of the concentration-response curve. In general, Papp refers to the rate of passage across a membrane or cell layer, normalised by area and donor concentration. For orientation: IC50 means the concentration that inhibits the measured activity by half.

Series [1] deals with T1, G-protein coupled receptor 39 (Homo sapiens, UniProt O43194).
T1 sequence (O43194 whole entry): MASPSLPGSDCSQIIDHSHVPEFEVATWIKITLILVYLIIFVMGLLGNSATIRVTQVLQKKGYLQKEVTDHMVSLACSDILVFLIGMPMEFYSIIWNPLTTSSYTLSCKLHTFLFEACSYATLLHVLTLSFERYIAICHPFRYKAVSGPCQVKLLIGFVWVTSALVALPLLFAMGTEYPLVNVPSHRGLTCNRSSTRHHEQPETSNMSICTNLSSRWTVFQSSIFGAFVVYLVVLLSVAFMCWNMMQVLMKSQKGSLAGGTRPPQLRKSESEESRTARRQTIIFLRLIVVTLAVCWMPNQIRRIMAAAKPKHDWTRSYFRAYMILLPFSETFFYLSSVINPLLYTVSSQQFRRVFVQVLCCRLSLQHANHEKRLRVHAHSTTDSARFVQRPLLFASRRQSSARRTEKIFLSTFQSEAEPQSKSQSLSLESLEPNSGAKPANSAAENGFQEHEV
As to the kind of experiment: Agonist activity at recombinant human GPR39 expressed in CHO-K1 cells assessed as increase of Zn2+-induced cAMP production preincubated for 30 mins measured after 60 mins. The format is functional, cell-based. Background: Cyclic AMP is a second messenger, typically raised through Gs and lowered through Gi signalling.

The target of series [2] is T1, G-protein coupled receptor 39. The series is described as follows: Agonist activity at recombinant human GPR39 expressed in CHO-K1 cells assessed as increase of Zn2+-induced intracellular Ca+2 mobilization after 1 hr by Fluo-4 No staining-based FLIPR assay. In kind it is cell-based.
The nature of series [3]: Apparent permeability of the compound. The format is physicochemical. The conditions noted are these: not told.
Series [4] concerns the target T2, G-protein coupled receptor 39 (Homo sapiens) (UniProt O43194).
T2 sequence (whole entry): T1 sequence (O43194 whole entry)
The series is described as follows: Agonist activity at recombinant human GPR39 expressed in CHO-K1 cells assessed as increase of Zn2+-induced intracellular Ca+2 mobilization after 1 hr by Fluo-4 No staining-based FLIPR assay relative to Zn+2. The format is cell-based.

Series [5] has as its target T2, G-protein coupled receptor 39 (Homo sapiens). The series is described as follows: Agonist activity at GPR39 in human HT-29 cells assessed as intracellular Ca2+ mobilization up to 30 uM after 72 hrs by FLIPR assay. The format is functional, cell-based.
Series [6] shares this target. The series is described as follows: Agonist activity at GPR39 in human HT-29 cells assessed as cAMP accumulation up to 30 uM. In kind it is functional, cell-based.
For series [7] the target is unchanged. The series is described as follows: Agonist activity at recombinant human GPR39 expressed in CHO-K1 cells assessed as increase of Zn2+-induced cAMP production preincubated for 30 mins measured after 60 mins relative to Zn+2. The format is functional, cell-based.
Series [8] has as its target T1, G-protein coupled receptor 39. As to the kind of experiment: Agonist activity at GPR39 in human HT-29 cells assessed as increase in intracellular Ca2+ mobilization after 72 hrs by FLIPR assay. The format is functional, cell-based. A general note: Calcium assays in cells follow changes in intracellular calcium, usually with a dye or a luminescent sensor.
For series [9], the target named is cGMP-inhibited 3',5'-cyclic phosphodiesterase 3B (Homo sapiens, UniProt Q13370). The series is described as follows: Inhibition of PDE3B (unknown origin).
Chain of cGMP-inhibited 3',5'-cyclic phosphodiesterase 3B (Q13370 whole entry): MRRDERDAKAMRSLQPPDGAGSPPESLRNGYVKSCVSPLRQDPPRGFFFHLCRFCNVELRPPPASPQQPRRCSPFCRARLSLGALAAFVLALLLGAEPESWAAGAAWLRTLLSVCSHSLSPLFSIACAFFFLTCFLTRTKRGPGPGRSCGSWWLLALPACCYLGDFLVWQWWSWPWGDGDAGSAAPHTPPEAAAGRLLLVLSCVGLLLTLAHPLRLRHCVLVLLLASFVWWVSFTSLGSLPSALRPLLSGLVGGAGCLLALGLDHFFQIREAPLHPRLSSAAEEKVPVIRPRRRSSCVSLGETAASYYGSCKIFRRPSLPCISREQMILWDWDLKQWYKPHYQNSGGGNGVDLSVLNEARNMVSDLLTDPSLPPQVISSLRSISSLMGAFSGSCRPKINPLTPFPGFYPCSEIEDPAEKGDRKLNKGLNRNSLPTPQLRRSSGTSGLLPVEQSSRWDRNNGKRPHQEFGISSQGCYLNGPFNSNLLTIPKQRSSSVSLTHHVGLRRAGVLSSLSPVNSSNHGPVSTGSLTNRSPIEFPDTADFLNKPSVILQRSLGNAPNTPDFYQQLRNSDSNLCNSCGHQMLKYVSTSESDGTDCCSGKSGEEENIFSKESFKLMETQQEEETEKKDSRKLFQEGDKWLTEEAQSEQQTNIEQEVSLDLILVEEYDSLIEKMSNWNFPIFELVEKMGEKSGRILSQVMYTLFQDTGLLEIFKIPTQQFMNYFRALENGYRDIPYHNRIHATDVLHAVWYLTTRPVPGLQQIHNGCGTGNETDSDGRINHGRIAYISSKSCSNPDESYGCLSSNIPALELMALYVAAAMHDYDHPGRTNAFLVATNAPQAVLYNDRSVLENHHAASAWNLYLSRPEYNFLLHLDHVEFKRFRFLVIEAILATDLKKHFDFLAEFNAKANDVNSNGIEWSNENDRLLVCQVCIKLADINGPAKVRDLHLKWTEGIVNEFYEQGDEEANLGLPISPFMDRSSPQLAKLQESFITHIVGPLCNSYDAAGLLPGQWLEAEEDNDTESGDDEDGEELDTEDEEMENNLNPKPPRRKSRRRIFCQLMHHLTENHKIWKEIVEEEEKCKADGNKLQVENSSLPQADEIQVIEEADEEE
For series [10], the target named is T2, G-protein coupled receptor 39 (Homo sapiens). The series is described as follows: Agonist activity at GPR39 in human HT-29 cells assessed as cAMP accumulation. The format is functional, cell-based.
For series [11] the target is unchanged. As to the kind of experiment: Agonist activity at GPR39 in human HT-29 cells assessed as intracellular Ca2+ mobilization after 72 hrs by FLIPR assay in presence of siRNA. The format is functional, cell-based.
Series [12] deals with T3, Protein Gpr39 (Rattus norvegicus) (UniProt A6QR73).
T3 sequence (whole entry): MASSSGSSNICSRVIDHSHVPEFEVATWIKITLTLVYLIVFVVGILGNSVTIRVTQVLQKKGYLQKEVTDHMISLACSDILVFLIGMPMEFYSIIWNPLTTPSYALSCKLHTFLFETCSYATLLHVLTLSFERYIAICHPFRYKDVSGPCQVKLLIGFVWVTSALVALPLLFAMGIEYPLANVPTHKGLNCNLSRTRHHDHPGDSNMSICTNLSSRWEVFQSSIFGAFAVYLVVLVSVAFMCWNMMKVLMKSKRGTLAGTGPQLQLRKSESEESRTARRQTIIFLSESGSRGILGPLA
The series is described as follows: Agonist activity at GPR39 in rat INS-1 cells assessed as effect on glucose-stimulated insulin secretion. In kind it is cell-based. The conditions noted are these: INS1.

Series [13] addresses T2, G-protein coupled receptor 39 (Homo sapiens). The series is described as follows: Agonist activity at GPR39 in human islets assessed as 11.2 mM glucose-stimulated insulin secretion up to 10 uM after 1 hr.
Series [14] in a line: Apparent permeability across MDCK cells. The format is ADME, cell-based, Canis lupus familiaris. Particulars: dog.
In series [15] the target is T2, G-protein coupled receptor 39 (Homo sapiens). As to the kind of experiment: Agonist activity at GPR39 in human islets assessed as 2.8 mM glucose-stimulated insulin secretion up to 10 uM after 0.75 hrs.
Series [16] addresses cGMP-inhibited 3',5'-cyclic phosphodiesterase 3A (Homo sapiens, UniProt Q14432). As to the kind of experiment: Inhibition of PDE3a (unknown origin).

The source made the active and inactive calls. The rule behind the calls is not given here.

Chain of cGMP-inhibited 3',5'-cyclic phosphodiesterase 3A (Q14432 whole entry): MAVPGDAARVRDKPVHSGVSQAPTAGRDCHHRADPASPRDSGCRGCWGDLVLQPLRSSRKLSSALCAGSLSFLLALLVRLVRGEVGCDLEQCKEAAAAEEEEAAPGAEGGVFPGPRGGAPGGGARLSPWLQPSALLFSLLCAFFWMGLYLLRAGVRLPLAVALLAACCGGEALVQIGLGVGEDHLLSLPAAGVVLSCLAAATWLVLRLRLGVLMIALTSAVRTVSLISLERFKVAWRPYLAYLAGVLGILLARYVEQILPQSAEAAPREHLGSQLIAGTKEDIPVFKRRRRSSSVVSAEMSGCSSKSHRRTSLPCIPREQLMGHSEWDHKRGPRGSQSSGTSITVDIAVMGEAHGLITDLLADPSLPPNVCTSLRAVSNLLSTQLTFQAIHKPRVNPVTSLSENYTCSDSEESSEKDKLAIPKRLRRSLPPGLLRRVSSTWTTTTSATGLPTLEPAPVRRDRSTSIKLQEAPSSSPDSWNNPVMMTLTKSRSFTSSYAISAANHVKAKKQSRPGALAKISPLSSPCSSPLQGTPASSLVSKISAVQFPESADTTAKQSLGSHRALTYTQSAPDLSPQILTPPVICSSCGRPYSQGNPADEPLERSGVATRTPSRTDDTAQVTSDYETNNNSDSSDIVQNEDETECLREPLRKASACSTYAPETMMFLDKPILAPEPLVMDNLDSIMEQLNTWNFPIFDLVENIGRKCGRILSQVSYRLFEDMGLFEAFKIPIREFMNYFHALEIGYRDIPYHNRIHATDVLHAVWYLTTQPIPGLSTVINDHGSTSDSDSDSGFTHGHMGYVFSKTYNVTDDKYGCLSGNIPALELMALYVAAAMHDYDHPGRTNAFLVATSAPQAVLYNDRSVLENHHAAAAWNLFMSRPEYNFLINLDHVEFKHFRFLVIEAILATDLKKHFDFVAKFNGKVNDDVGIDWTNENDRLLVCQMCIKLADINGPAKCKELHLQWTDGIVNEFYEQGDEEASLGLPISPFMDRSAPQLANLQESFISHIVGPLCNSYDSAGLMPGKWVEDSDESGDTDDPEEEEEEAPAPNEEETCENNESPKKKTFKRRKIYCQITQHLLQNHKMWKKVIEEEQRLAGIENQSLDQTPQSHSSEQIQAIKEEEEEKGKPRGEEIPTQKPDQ

`CCc1ncc(CN2C[C@H](C(=O)NCc3ccccc3Cl)[C@@H](c3cccnc3)C2)[nH]1`: the half-maximal effective concentration (EC50) in series [1] worked out at 310 nM; in series [2], 320 nM. Moreover, the Papp in series [3] came out at 1.2 ×10⁻⁶ cm/s.
Regarding `CCc1nc(CN2C[C@H](C(=O)NCc3ccccc3Cl)[C@@H](c3cccnc3)C2)c[nH]1`, the Efficacy was determined as 66% in series [4] and 107% in series [7]. The result in series [5] and in series [6] was inactive.
Regarding `CCc1nc(CN2C[C@@H](C(=O)NCc3ccccc3Cl)[C@H](c3cccnc3)C2)c[nH]1`, the Efficacy in [4] was 74%; in [7], 99%. In addition, the outcome in [5] and in [6] was inactive.
For `N#Cc1ccc(N2CCN(Cc3cn4cc(Cl)ccc4n3)CC2)nc1`, the Efficacy in series [4] came to 76%; in [7] it was 100%. For the same compound, the EC50 in series [1] worked out at 12000 nM; in [8], 900 nM; in series [2] it was 56 nM. Also, the 50% inhibitory concentration (IC50) in series [9] came out at 24000 nM; in series [16], 15000 nM. Further, the result in series [10], in [11], in series [12], in series [13] and in [15] was inactive. Further, the Papp in series [14] turned out to be 7.6 ×10⁻⁶ cm/s.
`CCc1ncc(CN2C[C@@H](C(=O)NCc3ccccc3Cl)[C@H](c3cccnc3)C2)[nH]1`: the EC50 in [1] came to 840 nM; in [2] it was 190 nM. Further, the Papp in series [3] came to 0.8 ×10⁻⁶ cm/s.
With `COc1cccc([C@@H]2CCN(CCc3ccccc3)C[C@H]2C(=O)NCCc2ccccn2)c1` (racemic), the values for the Efficacy in series [4] and in series [7] were 82% and 107%, respectively. Moreover, the EC50 in series [1] is 4500 nM; in series [2], 3100 nM. Moreover, the apparent permeability (Papp) in series [3] turned out to be 3.1 ×10⁻⁶ cm/s.
